Data set [1] has as its system 3-nitrotyrosine formation in the lung parenchyma. The following applies: for 3-nitrotyrosine stained surface area, mean ± SEM: cigarette smoke alone 3.07, room air 0.24. The procedure: C57BL/6J mice (n=25, 5 per group; male/female, 3-6 months, 20-30 g; Charles River GmbH, Sulzfeld, Germany) were anesthetized with a ketamine (100 mg/kg body weight) and xylazine (20 mg/kg body weight) intraperitoneal injection (Ceva Tiergesundheit GmbH, Dusseldorf, Germany) containing heparin (50 I.E. heparin/g body weight; Ratiopharm GmbH, Ulm, Germany). The lungs and the heart were removed from the chest cavity and placed on the ILU system (see FIGS. 1A and 1B). Lungs were ventilated in an isolated chamber using normoxic gas (21% O2, 5% CO2, 74% N2; 150 breaths per minute at the PEEP (positive end-expiratory pressure) of 3 cm H2O) and perfused with a modified Krebs-Henseleit buffer (120.0 mM NaCl, 4.3 mM KCl, 1.1 mM KH2PO4, 2.4 mM CaCl2, 1.3 mM MgCl2, 13.14 mM glucose, 0.25 mM hydroxyethyl starch 200000/0.5, 25.0 mM NaHCO3 adjusted to a constant pH range of […] L-arginine; Serag-Wissner GmbH & Co. KG, Naila, Germany) at a temperature of 37° C. Lung weight, right and left ventricle pressure, as well as ventilatory pressure were monitored and recorded during the whole experimental procedure. After 5-10 minutes, when the lung was properly flushed and all the parameters were stable, 5-amino-2,3-dihydro-1,4-phthalazinedione sodium salt was applied by adding 150 μl of a stock solution to 15 ml of the circulating perfusion buffer. The substance was applied 10 minutes prior to the first cigarette smoke application. Cigarette smoke was applied via trachea while lung is perfused with the buffer containing 5-amino-2,3-dihydro-1,4-phthalazinedione sodium salt. Cigarette smoke was prepared freshly before each application, by burning one cigarette (research cigarettes 3R4F, University of Kentucky, USA) in one minute using normoxic gas at the flow of 1 l/min and collected in a 1 l glass bottle containing 5 g silica gel for removing the moist from the cigarette smoke. 50 ml of the cigarette smoke were taken via a syringe and applied to the lung via trachea (FIG. 4A) in deep breaths (periodic inflation for 3-4 s) over a period of 5 min. The application was done manually while carefully monitoring the inspiratory pressure to avoid damage of the lung. The cigarette smoke application was repeated three times with a 1 hour break in-between.
5-amino-2,3-dihydro-1,4-phthalazinedione sodium salt Form I was dissolved in water for injection (vehicle) at the required concentrations described above. Stock solutions were prepared in water for injection. Further 1:100 dilutions were made with modified Krebs-Henseleit buffer (see above). Stock solutions were stored at −70° C. in appropriate aliquots. The required amount of stock solution was thawed, and the corresponding working solution was prepared for immediate use.
One hour after the third cigarette smoke application lungs were removed from the system and fixed by inflating with formalin solution (via trachea) at the pressure of 12-15 cm H2O for two hours at room temperature. Afterwards the fixed lungs were kept in PBS (phosphate buffer saline, see below) at +4° C. until further dehydration and paraffin embedding. Paraffin blocks were cut 3 μm thick, dried overnight at 37° C. and stained for 3-nitrotyrosine (3-NT).
The immunohistochemical staining of 3-nitrotyrosine was carried out according to the following protocol:
Stained histological samples were blindly analysed by light microscope. 3-nitrotyrosine levels in the lung parenchyma were quantified as a percentage of stained surface area. Quantification was performed under 200× magnification in 5-10 randomly selected fields with exclusion of large bronchi and vessels. One-Way ANOVA statistical test with Bonferroni correction was performed for comparison between groups. Differences with p<0.05 were considered statistically significant.

The subject of a further data set is Vero B4 cells. The following applies: antivirally effective concentrations; observation period of 3 days; tested 0.25-4 mM. The text has this: Herein viable cells with an intact mitochondrial succinate-tetrazolium dehydrogenase system effect an enzymatic conversion of the feebly red tetrazolium salt WST-1 (4-[3-(4-iodophenyl)-2-(4-nitrophenyl)-2H-5-tetrazolio]-1,3 benzene disulfonate) into dark red formazan. This color change can be measured photometrically in a spectrophotometer. Thus, the WST assay is a very sensitive method for measuring the toxicity of substances on the cell metabolism. The value for untreated cells was set to 100%.
The value for untreated cells was set to 100%. 1 μM staurosporine (an indolocarbazole compound from Streptomyces staurosporeus, an apoptosis inducer) was used as positive control.

The next data set has as its system PCI model of sepsis. The note with it: for survival rate after 10 days: therapeutic mode, n=6. The procedure: In the PCI (peritoneal contamination and infection) model of sepsis a human fecal suspension was injected intraperitoneally to mice (3 μl/g body weight). To all groups the antibiotic meropenem (25 mg/kg body weight) was administered 6 hours after PCI induction. At this time point all mice received also a volume loading with a 5% glucose solution. This treatment is repeated on the two consecutive days after PCI induction, at intervals of 24 hours. • Group I: control (not infected) • Group II: PCI (infected, without treatment) • Group III: PCI+2 mg/kg body weight 5-amino-2,3-dihydro-1,4-phthalazinedione sodium salt Form I • Group IV: PCI+5 mg/kg body weight 5-amino-2,3-dihydro-1,4-phthalazinedione sodium salt Form I
Starting at 8 hours after PCI induction the mice of the treatment groups were treated for two consecutive days every 8 hours with an intraperitoneal injection of 2 mg/kg body weight, respectively 5 mg/kg body weight 5-amino-2,3-dihydro-1,4-phthalazinedione sodium salt Form I. Thereupon the mice were treated for further eight days with an intraperitoneal injection of 2 mg/kg body weight, respectively 5 mg/kg body weight 5-amino-2,3-dihydro-1,4-phthalazinedione sodium salt Form I once daily. (n=6)
Herein the mice were treated with 5 mg/kg body weight 5-amino-2,3-dihydro-1,4-phthalazinedione sodium salt Form I only, but only twice, 3 hours before PCI induction and 6 hours after (n=8).
The Clinical Severity Score (CSS) was assessed daily for the mice of the prophylactic treatment group. The CSS was assessed according to Gonnert et al. (2011) J Surg Res 170: e123-134.

Data set [2] relates to murine peritoneal macrophages. The text has this:
Female C57Bl/6 mice (6-8 weeks old) were purchased from Envigo (San Petro al Natisone, Udine, Italy) and housed under standard laboratory conditions (specific-pathogen free). Food and water were applied ad libitum. Animal handling and the study protocol were in accordance with international guidelines.
Four days after i.p. injection of 3% thioglycolate medium (w/v in distilled water; St Louis, Mo. USA), murine peritoneal macrophages (PM) were isolated according to the protocol of Zhang et al. (Curr. Protoc. Immunol. 2008, Chapter 14, Unit 14.1).
Briefly, cells were collected by injecting 10 ml of complete medium (DMEM/F12 Medium containing 10% fetal calf serum) into the peritoneal cavity using a 30 cc syringe attached to a 19-G needle, followed by slowly withdrawing the lavage fluid. Cells were washed twice in PBS (phosphate buffered saline) and counted.
One hour prior to LPS (lipopolysaccharide) stimulation (0.1 μg/ml; Escherichia coli […], St Louis, Mo. USA), cells (0.5×10^6 cells/well in 24-well plates with 1 ml total volume of medium) were pre-treated with scalar concentrations of 5-amino-2,3-dihydro-1,4-phthalazinedione sodium salt (ranging from 1 mM to 0.025 mM). Two independent experiments (each using cells pooled from three mice) were performed and secreted cytokine levels were determined 24, 48 and 72 h after LPS stimulation using ELISA technique.

Setting [3] is: 1 mM, pre-treatment 1 h prior to LPS (0.1 μg/ml), C57Bl/6 PMs.

Read-outs that look alike come from different tables or passages of the source.

As to `Nc1cccc2c(=O)[nH][nH]c(=O)c12.[Na]` [5-amino-2,3-dihydro-1,4-phthalazinedione sodium salt], the results for the “cigarette smoke induced 3-nitrotyrosine formation (in words)” value in data set [1] (0.5 mM in perfusion buffer), in data set [1] (1 mM in perfusion buffer) and in data set [1] (2 mM in perfusion buffer) were “moderate effect”, “almost completely abolished” and “almost completely abolished”, respectively. Also, the entries for the “3-nitrotyrosine stained surface area, mean ± SEM” value in data set [1] (cigarette smoke + 0.5 mM in perfusion buffer (group C)), in data set [1] (cigarette smoke + 1 mM in perfusion buffer (group D)) and in data set [1] (cigarette smoke + 2 mM in perfusion buffer (group E)) were 2.24 ± 0.28 % area, 0.72 ± 0.26 % area and 0.37 ± 0.13 % area, respectively. Also, in the data set on SARS-CoV-2, the “SARS-CoV-2 nucleocapsid protein (Western Blot)” value is on record as “clear reduction”. In addition, in the data set with SARS-CoV-2, the “generation of SARS-CoV-2 proteins (densitometric evaluation)” value is reported as “inhibited dose-dependently”. Moreover, the “toxic effect (cell viability, WST assay)” value in the data set with Vero B4 cells is “does not display any significant toxic effect”. This molecule also displayed a survival rate with PCI model of sepsis (prophylactic mode, 5 mg/kg body weight, 3 hours before and 6 hours after PCI induction, Group IV, n=8) of 100%. Also, in the data set with PCI model of sepsis (prophylactic mode, 5 mg/kg body weight, in particular after Day 4), the “recovery (Clinical Severity Score) versus untreated group” value is given as “recovered clearly more quickly”. The “Clinical Severity Score (CSS) versus untreated group” value with PCI model of sepsis (prophylactic mode, 5 mg/kg body weight, surviving animals) is reported as “less strongly diseased”. Moreover, the “survival rate after 10 days” value in the data set on PCI model of sepsis (2 mg/kg body weight i.p., Group III) is listed as 50%; with PCI model of sepsis (5 mg/kg body weight i.p., Group IV) it was 83%. Further, the “reduction of IL-1-beta level” value in data set [2] (setting [3]) is reported as around 50%. Also, the “reduction of IL-6 level” value in data set [2] (setting [3]) is recorded as around 80%. Moreover, in data set [2] (setting [3]), the “reduction of IL-12 level” value is around 60%. Further, the “reduction of TNF-alpha level” value in data set [2] (setting [3]) is recorded as “about 40%”. The “cytokine reduction in PMs of a second mouse strain” value in data set [2] (Balb/c, six concentrations from 1 mM to 0.25 mM, data not shown) is reported as “clear dose-dependency”. Further, the “cytokine secretion of unstimulated murine PMs” value in data set [2] (no LPS, data not shown) is recorded as “did not affect”.

The record behind these values is patent US20230113516A1, “5-AMINO-2,3-DIHYDRO-1,4-PHTHAL[…] TREATMENT OF ACUTE LUNG INJURY” (Metriopharm AG, priority 2020, published 2023).
